For assay [1], the target named is Opioid receptor (Rattus norvegicus) (UniProt P33533+P34975+P33535). Description: Ratio of IC50 value in presence of NaCl to that of NaCl absence against opioid receptor. The assay is classed as protein assay.
Assay [2] has as its target T1, Opioid receptor (Rattus norvegicus, UniProt P33533+P34975+P33535). Description: In vitro opioid receptor binding competition against 1 nM [3H]- Naltrexone in the absence of NaCl. In kind it is protein assay.
Assay [3] has as its target T1, Opioid receptor. Description: In vitro opioid receptor binding competition against 1 nM [3H]- Naltrexone in the presence of 100 mM NaCl. The assay is classed as protein assay.
Assay [4] in a line: Activity against specific binding of [3H]naltrxone at dose 200 nM & at 25 degree C in the absence of Na+ ion (unwashed ).
Assay [5] in a line: Activity against specific binding of [3H]naltrxone at dose 200 nM & at 25 degree C in the absence of Na+ ion (washed).
Assay [6] in a line: Activity against specific binding of [3H]-naltrxone at dose 200 nM & at 25 degree C in the presence of Na+ ion (unwashed ).
Assay [7] in a line: Activity against specific binding of [3H]naltrxone at dose 200 nM & at 25 degree C in the presence of Na+ ion (washed).
Assay [8] can be described thus: Activity against specific binding of [3H]naltrxone at dose 500 nM & at 37 degree C in the presence of Na+ ion (unwashed ).
A short description of assay [9]: Activity against specific binding of [3H]naltrxone at dose 500 nM & at 37 degree C in the presence of Na+ ion(washed).
Assay [10] in a line: Activity against specific binding of [3H]naltrxone at dose 75 nM & at 37 degree C in the absence of Na+ ion (unwashed ).
Assay [11] can be described thus: Activity against specific binding of [3H]naltrxone at dose 75 nM & at 37 degree C in the absence of Na+ ion (washed).

For `C=C1CC2(CCC3(O)[C@H]4Cc5ccc(O)c6c5[C@@]3(CCN4CC3CC3)C2O6)OC1=O` (stereo in doubt; 6a) [listing 1 of 2 here], the Ratio in [1] was 1.2.
One may read the IC50 as the point on the concentration scale where inhibition reaches its midpoint. As for `CCOC(=O)[C@H]1OC12CCC1(O)[C@H]3Cc4ccc(O)c5c4[C@@]1(CCN3CC1CC1)C2O5` (stereo partly specified), the concentration for half-maximal inhibition (IC50) on Opioid receptor [2] was found to be 0.0023 µM; at Opioid receptor [3] it was 0.0035 µM. For the same molecule, in [1], the Ratio is 1.5.
For `CN1CC[C@]23c4c5ccc(O)c4OC2C2(CCC3(O)C1C5)CO2` (stereo partly specified), the results for the half-inhibitory concentration (IC50) at Opioid receptor [2] and at Opioid receptor [3] were 0.008 µM and 0.06 µM, respectively. In [1], the Ratio is 7.5.
For `CC1=CC2(CCC3(O)[C@H]4Cc5ccc(O)c6c5[C@@]3(CCN4CC3CC3)C2O6)OC1=O` (stereo partly specified), in that order: 0.04 µM, 0.07 µM and 1.8.
For `C=C1C(=O)OC2C1CC1(O)[C@H]3Cc4ccc(O)c5c4[C@@]1(CCN3CC1CC1)C2O5` (stereo partly specified), in that order: 0.01 µM, 0.007 µM and 0.7.
Consider `C=C1CC2(CCC3(O)[C@H]4Cc5ccc(O)c6c5[C@@]3(CCN4C)C2O6)OC1=O` (stereo in doubt; 5b) [listing 1 of 2 here], for which the concentration for half-maximal inhibition (IC50) at Opioid receptor [2] came to 0.035 µM; on Opioid receptor [3] it was 0.25 µM.
As for `C=C1CC2(CCC3(O)[C@H]4Cc5ccc(O)c6c5[C@@]3(CCN4C)C2O6)OC1=O` (stereo in doubt; 5b) [listing 2 of 2 here], the Control stood at 35% in assay [4]; 79% in [5]; 43% in [6]; 63% in [7]; 34% in [8]; 56% in assay [9]. The Control in assay [10] was 66%; in assay [11], 97%. Besides, in [1], the Ratio was 7.
As to `C=C1C(=O)OC2=C1CC1(O)[C@H]3Cc4ccc(O)c5c4[C@@]1(CCN3CC1CC1)C2O5` (stereo partly specified), the IC50 is 0.1 µM on Opioid receptor [2] and 0.05 µM at Opioid receptor [3]. The Ratio in assay [1] was determined as 0.5.
Turning to `C=C1CC2(CCC3(O)[C@H]4Cc5ccc(O)c6c5[C@@]3(CCN4C)C2O6)OC1=O` (stereo in doubt; 6b) [listing 1 of 2 here], the Ratio in [1] stood at 7.
For the molecule `C=C1CC2(CCC3(O)[C@H]4Cc5ccc(O)c6c5[C@@]3(CCN4CC3CC3)C2O6)OC1=O` (stereo in doubt; 5a) [listing 1 of 2 here], the concentration for half-maximal inhibition (IC50) stood at 0.005 µM on Opioid receptor [2] and 0.002 µM on Opioid receptor [3].
For `Oc1ccc2c3c1OC1C4(CCC5(O)[C@@H](C2)N(CC2CC2)CC[C@]315)CO4` (stereo in doubt; 13a) [listing 1 of 2 here], the Ratio in assay [1] was determined as 0.6.
On to `Oc1ccc2c3c1OC1C4(CCC5(O)[C@@H](C2)N(CC2CC2)CC[C@]315)CO4` (stereo in doubt; 12a) [listing 1 of 2 here], for which the results for the half-maximal inhibitory concentration (IC50) at Opioid receptor [2] and at Opioid receptor [3] were 0.004 µM and 0.002 µM, respectively.
For `CCOC(=O)[C@H]1OC12CCC1(O)C3Cc4ccc(O)c5c4[C@@]1(CCN3C)C2O5` (stereo partly specified), the figures for the IC50 at Opioid receptor [2] and at Opioid receptor [3] were 0.07 µM and 1 µM, respectively. Further, the Ratio in assay [1] was 14.2.
Regarding `Oc1ccc2c3c1OC1C4(CCC5(O)[C@@H](C2)N(CC2CC2)CC[C@]315)CO4` (stereo in doubt; 13a) [listing 2 of 2 here], the values for the half-maximal inhibitory concentration (IC50) on Opioid receptor [2] and at Opioid receptor [3] were 0.0051 µM and 0.0034 µM, respectively.
On to `CC1CC2(CCC3(O)[C@H]4Cc5ccc(O)c6c5[C@@]3(CCN4CC3CC3)C2O6)OC1=O` (stereo partly specified), for which the half-inhibitory concentration (IC50) was determined as 0.01 µM on Opioid receptor [2] and 0.006 µM at Opioid receptor [3]. For the same molecule, the Ratio in assay [1] is 0.6.
As for `C=C1CC2(CCC3(O)[C@H]4Cc5ccc(O)c6c5[C@@]3(CCN4C)C2O6)OC1=O` (stereo in doubt; 6b) [listing 2 of 2 here], the values for the IC50 on Opioid receptor [2] and on Opioid receptor [3] were 0.125 µM and 0.88 µM, respectively.
For `C=C1CC2(CCC3(O)[C@H]4Cc5ccc(O)c6c5[C@@]3(CCN4CC3CC3)C2O6)OC1=O` (stereo in doubt; 6a) [listing 2 of 2 here], in that order: 0.0125 µM and 0.015 µM.
With `CC1=CC2(CCC3(O)C4Cc5ccc(O)c6c5[C@@]3(CCN4C)C2O6)OC1=O` (stereo partly specified), the results for the half-maximal inhibitory concentration (IC50) at Opioid receptor [2] and at Opioid receptor [3] were 0.2 µM and above 1 µM, respectively. Besides, the Ratio in [1] was above 5.
Consider `O=C1C=CC2(CCC3(O)[C@H]4Cc5ccc(O)c6c5[C@@]3(CCN4CC3CC3)C2O6)O1` (stereo partly specified), for which the half-inhibitory concentration (IC50) at Opioid receptor [2] and on Opioid receptor [3] was 0.01 µM in each case. In [1], the Ratio turned out to be 1.
`CCOC(=O)[C@@H]1OC12CCC1(O)C3Cc4ccc(O)c5c4[C@@]1(CCN3C)C2O5` (stereo partly specified): the IC50 on Opioid receptor [2] was determined as 0.015 µM; at Opioid receptor [3] it was 0.2 µM. Also, the Ratio in assay [1] came out at 13.3.
As for `Oc1ccc2c3c1OC1C4(CCC5(O)[C@@H](C2)N(CC2CC2)CC[C@]315)CO4` (stereo in doubt; 12a) [listing 2 of 2 here], the Ratio in assay [1] came out at 0.5.
At Opioid receptor [2], `CCOC(=O)[C@@H]1OC12CCC1(O)[C@H]3Cc4ccc(O)c5c4[C@@]1(CCN3CC1CC1)C2O5` (stereo partly specified) yielded an IC50 of 0.006 µM. The Ratio in [1] stood at 1.
As to `CC1CC2(CCC3(O)C4Cc5ccc(O)c6c5[C@@]3(CCN4C)C2O6)OC1=O` (stereo partly specified), the concentration for half-maximal inhibition (IC50) on Opioid receptor [2] was 0.03 µM; on Opioid receptor [3], 0.5 µM. Further, the Ratio in [1] was found to be 16.7.
Regarding `C=C1CC2(CCC3(O)[C@H]4Cc5ccc(O)c6c5[C@@]3(CCN4CC3CC3)C2O6)OC1=O` (stereo in doubt; 5a) [listing 2 of 2 here], the Ratio in assay [1] was 0.4.

Source of the values: ChEMBL document CHEMBL1123075, “Opioid agonists and antagonists. 6-Desoxy-6-substituted lactone, epoxide, and glycidate ester derivatives of naltrexone and oxymorphone” (J Med Chem, 1985).
